Measurements reported in PMC10227015, “From a drug repositioning to a structure-based drug design approach to tackle acute lymphoblastic leukemia” (Nature Communications, 2023).
“Also recorded” adds a separate entry of the source. Read-outs that look alike come from different tables or passages of the source.

Experiments:
[1] = system: dCK-C3S-S74E; test: Enzymatic assay (PK/LDH coupled), dC phosphorylation by dCK in the presence of ATP; type: biochemical, human
How it was run: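 His-purified dCK-C3S-S74E (100 nM, or 50 nM where indicated) phosphorylated 100 µM dC with 1 mM ATP in 50 mM HEPES pH 7.5, 5 mM MgCl2, 1 mM DTT, 100 mM KCl, coupled via PK/LDH/PEP/300 µM NADH. NADH fluorescence decrease (ex 337/em 460 nm) gave velocities normalized to drug-free control; IC50 by nonlinear regression, triplicates.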

[2] = Plasma pharmacokinetics after IP administration; type: in vivo; details: male, Swiss, mouse, mice
Experimental: (§1) To evaluate the in vivo toxicity selected compounds were injected by intraperitoneal (IP) route to 7 weeks-old male Swiss mice (n = 2) at 10, 20, 40, 50, or 80 mg/kg by unique injection. […] Compounds were administered in their hydrochloride salt forms. Mice were then observed closely for the next one hour, then every hour for 8 h. Observations were continued for 72 h for signs of pain or toxicity such as change in the behavior and in the activity in the cage (decreased locomotion) or change in the appearance (curved back, eyes half-closed, bristle hair, hips hollowed out). In vivo toxicity of compound OR0642 at 40 and 80 mg/kg was also assessed in the NOD-SCID-IL2Rγc null (NSG) mice model for 2 weeks in the presence and absence of dT to confirm the safety of the compound. […]. Blood samples were collected and spun at 10,000 × g prior to collecting the plasma supernatants. All plasma samples were frozen at −80 °C before sample processing. 13 μl of each plasma sample was mixed with 33 μl of acetonitrile to precipitate proteins and extract the compound. Samples were vortexed for 5 min and then placed in an ultrasonic bath for 1 min. The precipitated proteins were sedimented by centrifugation (15,000 × g, 5 min, 16 °C). Supernatants were transferred to a microplate to be analyzed by LC–MS/MS. All samples were analyzed with a UHPLC coupled to a Shimadzu LC-MS 8030 triple quadrupole. The solutions of a standard range, prepared with plasma from untreated mice, were analyzed in the same series of injections.

[3] = system: CCRF-CEM cell line; test: CCRF-CEM proliferation, compound alone (nonspecific toxicity); type: cell-based, human; details: for nonspecific cellular toxicity: CCRF-CEM, absence of dT + dC; for Cell proliferation of the CCRF-CEM cell line Mean (% prolif): 72 h
Experimental: The dCK cellular assay was set up to assess the ability to inhibit dCK activity in a cellular model. The model was developed with a T-cell acute lymphoblastic leukemia cell line (CCRF-CEM), because of its high dependence on the SP, thus on dCK activity. Cellular assays were performed to assess the inhibition of cell proliferation under two conditions: (i) in the presence of the compound alone to determine the nonspecific effect on cells, independent of dCK (nonspecific toxicity) and (ii) in the presence of an inhibitor of the DNP to determine the ability of compounds to inhibit dCK and decrease tumor proliferation (activity on dCK). The inhibitor of the DNP chosen for the experiments was thymidine (dT), a physiological inhibitor of ribonucleotide reductase which arrests cell proliferation in phase S. The dTTP produced via thymidine kinase from dT acts as a RNR inhibitor by an allosteric regulation of the R1 subunit. The addition of the nucleoside deoxycytidine (dC) in the medium allows the rescue of cell proliferation by passing only through the salvage pathway, mediated by dCK. dC needs to be added exogenously to mimic physiological concentrations because it is not present in the cell culture medium, on the contrary to mouse model, in which it is naturally present in the serum. Therefore, cell proliferation under these conditions (+dT +dC) is dCK dependent and it is possible to determine the IC50 of dCK inhibitors on the inhibition of cell proliferation. Results are expressed as % cell proliferation relative to the control with DMSO.
The amount of reduced dye formed by metabolically active cells was quantified by its fluorescence measured at 560 nm (excitation) and 590 nm (emission) in a microplate reader (CLARIOstar, BMG Labtech). A blank well without cells was used as a background control. Each experiment was performed at least three times (with technical triplicates) and data are presented as the mean ± SD.

[4] = Acute in vivo toxicity, unique IP injection; details: male, mouse, in vivo; Swiss mice, IP, unique injection; read-out: Maximum tolerated dose
Experimental: as §1

[5] = presence of ATP, [dCK] = 100 nM, read-out: ENZYMATIC ASSAY IC50
[6] = presence of ATP, [dCK] = 50 nM (footnote A), read-out: ENZYMATIC ASSAY IC50
[7] = dose 40 mg/Kg, read-out: T ½ (converted)

Chain of dCK-C3S-S74E (P27707 whole entry S74E, form open): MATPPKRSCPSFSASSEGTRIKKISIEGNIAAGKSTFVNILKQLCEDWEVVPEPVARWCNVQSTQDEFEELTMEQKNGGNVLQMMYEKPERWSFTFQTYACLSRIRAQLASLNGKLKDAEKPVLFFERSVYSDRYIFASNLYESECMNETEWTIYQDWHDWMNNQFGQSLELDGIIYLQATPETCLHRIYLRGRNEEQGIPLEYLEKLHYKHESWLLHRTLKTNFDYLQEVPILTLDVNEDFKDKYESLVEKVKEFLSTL

Row | SMILES | Enzymatic activity (ATP) Mean (% activity) ([1]; 0.16 µM) [%] | Enzymatic activity (ATP) Mean (% activity) ([1]; 0.31 µM) [%] | Enzymatic activity (ATP) Mean (% activity) ([1]; 0.63 µM) [%] | Enzymatic activity (ATP) Mean (% activity) ([1]; 1.25 µM) [%] | Enzymatic activity (ATP) Mean (% activity) ([1]; 2.5 µM) [%] | Enzymatic activity (ATP) Mean (% activity) ([1]; 5 µM) [%] | Enzymatic activity (ATP) Mean (% activity) ([1]; 10 µM) [%] | Enzymatic activity (ATP) Mean (% activity) ([1]; 20 µM) [%] | Enzymatic activity (ATP) Mean (% activity) ([1]; 40 µM) [%] | IC50 [1, 5] [nM] | Enzymatic activity (ATP) Mean (% activity) ([1]; 0.04 µM) [%] | Enzymatic activity (ATP) Mean (% activity) ([1]; 0.08 µM) [%] | Enzymatic activity (ATP) Mean (% activity) ([1]; 0.02 µM) [%] | MTD at 72 h [4] [mg/kg] | further results
1 | CCCN(c1nc(-c2nc(N)cc(N)n2)cs1)c1cc(-c2ccc(CCN3CCN(C)CC3)nc2)ccc1C [OR0602] | 23.6 | 0.751 | 4.3 | 6.6 | 6.1 | 4.8 |  |  |  |  | 81.1 | 60.0 | 88.7 | 10 | IC50 ([1]; ATP, technical limit of the assay, read-out: enzymatic inhibition IC50): 77 nM; Cmax ([2]; dose 10 mg/Kg): 960 ± 40 nM; Tmax ([2]; dose 10 mg/Kg): 1 h; half-life ([2]; dose 10 mg/Kg, read-out: T ½ (converted)): 2 ± 0.233 h; nonspecific cellular toxicity [3]: without an increase in nonspecific cellular toxicity
2 | CCCN(c1nc(-c2nc(N)cc(N)n2)cs1)c1cc(-c2ccc(S(=O)(=O)N3CCN(C)CC3)c(OC)c2)ccc1C [OR0635] | 15.4 | 4.7 | 4.6 | 2.0 | 1.6 |  |  |  |  |  | 82.4 | 61.6 | 74.5 | > 40 | Enzymatic activity (ATP) Mean (% activity) ([1]; 0.01 µM): 71.4%; IC50 [1, 6]: 66 ± 11 nM; Cmax ([2]; dose 40 mg/Kg): 2000 ± 200 nM; Tmax ([2]; dose 40 mg/Kg): 1.5 h; half-life [2, 7]: 6.22 ± 3.38 h; half-life ([2]; read-out: half-life): > 5 h
3 | CCCN(c1nc(-c2nc(N)cc(N)n2)cs1)c1cc(-c2ccc(S(=O)(=O)N3CCN(C)CC3)cc2C(F)(F)F)ccc1C [OR0642] | 43.5 | 8.3 | 4.2 | 2.4 | -0.5 |  |  |  |  |  | 65.5 | 63.0 | 80.5 | > 80 | Enzymatic activity (ATP) Mean (% activity) ([1]; 0.01 µM): 79.2%; IC50 [1, 6]: 106 ± 30 nM; Cmax ([2]; dose 20 mg/Kg): 800 ± 200 nM; Tmax ([2]; dose 20 mg/Kg): 2 h; half-life ([2]; dose 20 mg/Kg, read-out: T ½ (converted)): 7 ± 3 h; Cmax ([2]; dose 40 mg/Kg): 4100 ± 1500 nM; Tmax ([2]; dose 40 mg/Kg): 5 h; half-life [2, 7]: > 8 h; half-life ([2]; read-out: half-life): > 7 h; nonspecific cellular toxicity [3]: lack of non-specific toxicity; also recorded: absence of nonspecific toxicity
4 | Cc1ccc(NC(=O)c2ccc(CN3CCN(C)CC3)cc2)cc1Nc1nc(-c2nccc(N)n2)cs1 [dCKi1] | 93.7 | 94.8 | 91.7 | 77.3 | 51.8 | 30.3 | 11.5 | 3.9 | 3.1 | 2660 ± 608 |  |  |  |  | Cell proliferation of the CCRF-CEM cell line Mean (% prolif) ([3]; compound 10 µM alone): 76.3%
5 | Cc1ccc(NC(=O)c2ccc(CN3CCN(C)CC3)cc2)cc1Nc1nc(-c2nc(N)cc(N)n2)cs1 [dCKi2, N-(3-((4-(4,6-diaminopyrimidin-2-yl)thiazol-2-yl)amino)-4-methylphenyl)-4-((4-methylpiperazin-1-yl)methyl)benzamide] | 97.2 | 85.8 | 62.1 | 35.4 | 16.5 | 3.9 | 3.9 | 2.6 | 5.2 | 903 ± 37 |  |  |  |  | Cell proliferation of the CCRF-CEM cell line Mean (% prolif) ([3]; compound 10 µM alone): 78.4%
6 | Cc1cn([C@H]2C[C@H](O)[C@@H](CO)O2)c(=O)[nH]c1=O [dT, thymidine] |  |  |  |  |  |  |  |  |  |  |  |  |  |  | Cell proliferation of the CCRF-CEM cell line Mean (% prolif) ([3]; dT 111 µM alone): 33.2%

Continued, in another order:

Row | Enzymatic activity (ATP) Mean (% activity) ([1]; 0.16 µM) [%] | Enzymatic activity (ATP) Mean (% activity) ([1]; 0.31 µM) [%] | Enzymatic activity (ATP) Mean (% activity) ([1]; 0.63 µM) [%] | Enzymatic activity (ATP) Mean (% activity) ([1]; 1.25 µM) [%] | Enzymatic activity (ATP) Mean (% activity) ([1]; 2.5 µM) [%] | Enzymatic activity (ATP) Mean (% activity) ([1]; 5 µM) [%] | Enzymatic activity (ATP) Mean (% activity) ([1]; 10 µM) [%] | Enzymatic activity (ATP) Mean (% activity) ([1]; 20 µM) [%] | Enzymatic activity (ATP) Mean (% activity) ([1]; 40 µM) [%] | IC50 [1, 5] [nM] | SMILES | Enzymatic activity (ATP) Mean (% activity) ([1]; 0.04 µM) [%] | Enzymatic activity (ATP) Mean (% activity) ([1]; 0.08 µM) [%] | Enzymatic activity (ATP) Mean (% activity) ([1]; 0.02 µM) [%] | MTD at 72 h [4] [mg/kg] | further results
7 | 86.8 | 81.3 | 62.9 | 44.6 | 27.8 | 11.8 | 11.9 | 7.8 | 5.0 | 1033 ± 10 | Cc1ccc(-c2ccc(CN3CCN(C)CC3)cc2)cc1Nc1nc(-c2nccc(N)n2)cs1 [OR0274] |  |  |  |  | 
8 | 87.3 | 73.6 | 56.4 | 34.0 | 19.3 | 12.3 | 11.6 | 8.1 | 4.4 | 826 ± 78 | Cc1ccc(-c2ccc(CCN3CCN(C)CC3)cc2)cc1Nc1nc(-c2nccc(N)n2)cs1 [OR0325] |  |  |  |  | 
9 | 85.5 | 56.9 | 22.9 | 5.3 | -9.9 | -2.1 | -7.8 |  |  | 315 ± 50 | CCCN(c1nc(-c2nccc(N)n2)cs1)c1cc(-c2ccc(CCN3CCN(C)CC3)cc2)ccc1C [OR0345] | 96.0 | 95.1 |  |  | 
10 | 43.5 | 11.4 | 0.0484 | 1.1 | -0.9 | -8.7 | -3.1 |  |  | 121 ± 21 | CCCN(c1nc(-c2nc(N)cc(N)n2)cs1)c1cc(-c2ccc(CCN3CCN(C)CC3)cc2)ccc1C [OR0600] | 92.1 | 78.6 |  |  | 
